Results from patent US20230095836A1, “SUBSTITUTED 5,6-DIPHENYL-3(2H)-PYRIDAZINONES FOR USE AS FUNGICIDES” (FMC Corporation, priority 2020, published 2023).

Columns and labels:
Format in all cases: in vivo
[1] = test system: Puccinia recondita f. sp. tritici; assay: Test B: test solution sprayed on wheat seedlings, inoculated next day with Puccinia recondita f. sp. tritici (wheat leaf rust); disease rating (100 = 100% disease control, 0 = no control; dash = not tested)
Description: The resulting test suspensions were then used in Tests A-F. The test solution was sprayed to the point of run-off on wheat seedlings. […] A rating of 100 indicates 100% disease control and a rating of 0 indicates no disease control (relative to the controls). A dash (—) indicates the compound was not tested.

Alternaria solani = assay: Test F: test suspension sprayed on tomato seedlings, inoculated next day with Alternaria solani (tomato early blight); visual disease rating (100 = 100% disease control, 0 = no control; dash = not tested)
Description: (§1) The resulting test suspensions were then used in Tests A-F. The test suspension was sprayed to the point of run-off on tomato seedlings. The following day the seedlings were inoculated with a spore suspension of Alternaria solani (the causal agent of tomato early blight) and incubated in a saturated atmosphere at 27° C. for 48 h, and then moved to a growth chamber at 20° C. for 3 days, after which time visual disease ratings were made. A rating of 100 indicates 100% disease control and a rating of 0 indicates no disease control (relative to the controls). A dash (—) indicates the compound was not tested.

Zymoseptoria tritici = assay: Test A: test solution sprayed on wheat seedlings, inoculated next day with Zymoseptoria tritici (wheat leaf blotch); disease rating (100 = 100% disease control, 0 = no control; dash = not tested)
Description: The resulting test suspensions were then used in Tests A-F. The test solution was sprayed to the point of run-off on wheat seedlings. The following day the seedlings were inoculated with a spore suspension of Zymoseptoria tritici (the causal agent of wheat leaf blotch) and incubated in a saturated atmosphere at 24° C. for 48 h, and then moved to a growth chamber at 20° C. for 17 days, after which time disease ratings were made. A rating of 100 indicates 100% disease control and a rating of 0 indicates no disease control (relative to the controls). A dash (—) indicates the compound was not tested.

Botrytis cinerea = assay: Test E: test suspension sprayed on tomato seedlings, inoculated next day with Botrytis cinerea (tomato Botrytis); visual disease rating (100 = 100% disease control, 0 = no control; dash = not tested)
Description: as §1, with “Botrytis cinerea” for “Alternaria solani”, “Botrytis)” for “early blight)”, “20°” for “27°”, “24°” for “20°”

Phakopsora pachyrhizi = assay: Test D: test solution sprayed on soybean seedlings, inoculated next day with Phakopsora pachyrhizi (Asian soybean rust); visual disease rating (100 = 100% disease control, 0 = no control; dash = not tested)
Description: General protocol for preparing test suspensions for Tests A-F: the test compounds were first dissolved in acetone in an amount equal to 3% of the final volume and then suspended at the desired concentration (in ppm) in acetone and purified water (50/50 mix by volume) containing 250 ppm of the surfactant PEG400 (polyhydric alcohol esters). The resulting test suspensions were then used in Tests A-F.
The test solution was sprayed to the point of run-off on soybean seedlings. The following day the seedlings were inoculated with a spore suspension of Phakopsora pachyrhizi (the causal agent of Asian soybean rust) and incubated in a saturated atmosphere at 22° C. for 24 h and then moved to a growth chamber at 22° C. for 8 days, after which time visual disease ratings were made.
A rating of 100 indicates 100% disease control and a rating of 0 indicates no disease control (relative to the controls). A dash (—) indicates the compound was not tested.

[2] = test system: Blumeria graminis f. sp. tritici; assay: Test C: test suspension sprayed on wheat seedlings, inoculated next day with Blumeria graminis f. sp. tritici (wheat powdery mildew); visual disease rating (100 = 100% disease control, 0 = no control; dash = not tested)
Description: as §1, with “on wheat” for “on tomato”, “spore dust” for “spore suspension”, “of Blumeria graminis f. sp. tritici, (also known as Erysiphe graminis f. sp. tritici, the” for “of Alternaria solani (the”, “of wheat powdery mildew)” for “of tomato early blight)”, “in” for “in a saturated atmosphere at 27° C. for 48 h, and then moved to”, “for 8” for “for 3”

| Structure (SMILES) | Test B disease control rating ([1]; 50 ppm) | Test F disease control rating (Alternaria solani; 50 ppm) | Test A disease control rating (Zymoseptoria tritici; 50 ppm) | Test E disease control rating (Botrytis cinerea; 50 ppm) | Test D disease control rating (Phakopsora pachyrhizi; 50 ppm) | Test B disease control rating ([1]; 250 ppm) | Test F disease control rating (Alternaria solani; 250 ppm) | Test A disease control rating (Zymoseptoria tritici; 250 ppm) | Test E disease control rating (Botrytis cinerea; 250 ppm) | Test D disease control rating (Phakopsora pachyrhizi; 250 ppm) | Test C disease control rating ([2]; 250 ppm) | Test C disease control rating ([2]; 50 ppm) | further results |
| --- | --- | --- | --- | --- | --- | --- | --- | --- | --- | --- | --- | --- | --- |
| CC(O)c1c(-c2ccc(F)cc2Cl)c(-c2ccc(F)cc2Cl)nn(C)c1=O (racemic) [Compound 131] | 74% | 0% | 96% | 97% | 19% |  |  |  |  |  |  |  |  |
| CC(F)c1c(-c2ccc(F)cc2Cl)c(-c2ccc(F)cc2Cl)nn(C)c1=O (racemic) [Compound 132] | 68% | 0% | 100% | 97% | 0% |  |  |  |  |  |  |  |  |
| CCn1nc(-c2cc(OC)cc(OC)c2)c(-c2c(F)cccc2F)c(Cl)c1=O [Compound 1] |  |  |  |  |  | 55% | 0% | 87% | 90% | 0% | 0% |  |  |
| CCn1nc(-c2c(Cl)c(OC)cc(OC)c2Cl)c(-c2c(F)cccc2F)cc1=O [Compound 2] |  |  |  |  |  | 0% | 0% | 2% | 0% | 0% | 0% |  |  |
| CCn1nc(-c2cc(OC)cc(OC)c2)c(-c2cc(OC)cc(OC)c2)cc1=O [Compound 3] |  |  |  |  |  | 0% | 0% | 7% | 0% | 0% | 0% |  |  |
| CCn1nc(-c2c(F)cccc2F)c(-c2cc(OC)cc(OC)c2)cc1=O [Compound 4, 6-(2,6-difluorophenyl)-5-(3,5-dimethoxyphenyl)-2-ethyl-3(2H)-pyridazinone] |  |  |  |  |  |  |  |  |  |  |  |  | pest or weed control at 250 ppm ([1]; 250 ppm): 0%; pest or weed control at 250 ppm (Alternaria solani; 250 ppm): 0%; pest or weed control at 250 ppm (Zymoseptoria tritici; 250 ppm): 66%; pest or weed control at 250 ppm (Botrytis cinerea; 250 ppm): 9%; pest or weed control at 250 ppm (Phakopsora pachyrhizi; 250 ppm): 0%; pest or weed control at 250 ppm ([2]; 250 ppm): 0% |
| Cn1nc(-c2c(F)cccc2F)c(-c2c(F)cccc2F)cc1=O [Compound 5, 5,6-bis(2,6-difluorophenyl)-2-methyl-3(2H)-pyridazinone] |  |  |  |  |  |  |  |  |  |  |  |  | pest or weed control at 250 ppm ([1]; 250 ppm): 0%; pest or weed control at 250 ppm (Alternaria solani; 250 ppm): 0%; pest or weed control at 250 ppm (Zymoseptoria tritici; 250 ppm): 42%; pest or weed control at 250 ppm (Botrytis cinerea; 250 ppm): 99%; pest or weed control at 250 ppm (Phakopsora pachyrhizi; 250 ppm): 0%; pest or weed control at 250 ppm ([2]; 250 ppm): 100% |
| CCn1nc(-c2ccc(F)cc2Cl)c(-c2ccc(F)cc2Cl)c(C#N)c1=O [Compound 7] |  |  |  |  |  | 74% | 0% | 98% | 99% | 0% | 0% |  |  |
| CCn1nc(-c2cc(OC)cc(OC)c2Cl)c(-c2c(F)cccc2F)cc1=O [Compound 8] | 96% | 0% | 100% | 99% | 75% |  |  |  |  |  |  | 97% |  |
| CCn1nc(-c2cc(OC)cc(OC)c2Cl)c(-c2c(F)cccc2F)c(Cl)c1=O [Compound 9] | 100% | 91% | 100% | 99% | 99% |  |  |  |  |  |  | 99% |  |
| CCn1nc(-c2c(F)cccc2F)c(-c2cc(OC)cc(OC)c2)c(Cl)c1=O [Compound 10, 4-chloro-6-(2,6-difluorophenyl)-5-(3,5-dimethoxyphenyl)-2-ethyl-3(2H)-pyridazinone] |  |  |  |  |  |  |  |  |  |  |  |  | pest or weed control at 250 ppm ([1]; 250 ppm): 0%; pest or weed control at 250 ppm (Alternaria solani; 250 ppm): 0%; pest or weed control at 250 ppm (Zymoseptoria tritici; 250 ppm): 0%; pest or weed control at 250 ppm (Botrytis cinerea; 250 ppm): 0%; pest or weed control at 250 ppm (Phakopsora pachyrhizi; 250 ppm): 0%; pest or weed control at 250 ppm ([2]; 250 ppm): 0% |
| CCn1nc(-c2ccc(F)cc2Cl)c(-c2ccc(F)cc2Cl)cc1=O [Compound 11] |  |  |  |  |  | 9% | 0% | 2% | 87% | 0% | 64% |  |  |
| CCn1nc(-c2cc(OC)cc(OC)c2)c(-c2c(F)cccc2F)c(Br)c1=O [Compound 15] | 41% | 0% | 78% | 68% | 0% |  |  |  |  |  |  | 13% |  |
| CCn1nc(-c2cc(OC)cc(OC)c2Br)c(-c2c(F)cccc2F)c(Br)c1=O [Compound 16] | 97% | 94% | 99% | 99% | 84% |  |  |  |  |  |  | 97% |  |
| CCn1nc(-c2cc(OC)cc(OC)c2Br)c(-c2c(F)cccc2F)cc1=O [Compound 17] | 99% | 0% | 98% | 99% | 73% |  |  |  |  |  |  | 94% |  |
| COc1cc(OC)cc(-c2nn(C)c(=O)cc2-c2ccc(F)cc2Cl)c1 [Compound 18] |  |  |  |  |  | 98% | 0% | 99% | 99% | 0% | 96% |  |  |
| CCN1N=C(c2cc(OC)cc(OC)c2)C(c2ccc(F)cc2Cl)CC1=O (stereo not drawn) [Compound 19] |  |  |  |  |  | 0% | 0% | 0% | 0% | 0% | 0% |  |  |
| COc1cc(OC)cc(C2=NN(C)C(=O)CC2c2ccc(F)cc2Cl)c1 (stereo not drawn) [Compound 20] |  |  |  |  |  | 9% | 0% | 51% | 31% | 0% | 21% |  |  |
| COc1cc(OC)cc(-c2nn(C)c(=O)c(C)c2-c2c(F)cccc2F)c1 [Compound 21, 5-(2,6-difluorophenyl)-6-(3,5-dimethoxyphenyl)-2,4-dimethyl-3 (2H)-pyridazinone] |  |  |  |  |  |  |  |  |  |  |  |  | pest or weed control at 250 ppm ([1]; 250 ppm): 100%; pest or weed control at 250 ppm (Alternaria solani; 250 ppm): 99%; pest or weed control at 250 ppm (Zymoseptoria tritici; 250 ppm): 100%; pest or weed control at 250 ppm (Botrytis cinerea; 250 ppm): 100%; pest or weed control at 250 ppm (Phakopsora pachyrhizi; 250 ppm): 100%; pest or weed control at 250 ppm ([2]; 250 ppm): 100% |
| Cn1nc(-c2ccc(F)cc2Cl)c(-c2ccc(F)cc2Cl)c(C(F)F)c1=O [Compound 130] | 100% | 98% | 100% | 98% | 77% |  |  |  |  |  |  |  |  |
| Cn1nc(-c2ccc(F)cc2Cl)c(-c2ccc(F)cc2Cl)c(C(N)=O)c1=O [Compound 133] | 0% | 0% | 3% | 0% | 0% |  |  |  |  |  |  |  |  |
| COc1cc(C#N)cc(-c2nn(C)c(=O)c(Cl)c2-c2ccc(F)cc2Cl)c1 [Compound 173] | 100% | 99% |  | 92% | 84% |  |  |  |  |  |  | 94% |  |
| COc1cc(C#N)cc(-c2nn(C)c(=O)c(OC)c2-c2ccc(F)cc2Cl)c1 [Compound 174] | 95% | 91% |  | 83% | 30% |  |  |  |  |  |  | 97% |  |
